The values that follow are results of earlier work, collected in article PMC6270655, “Mixed Antimony(V) Complexes with Different Sugars to Modulate the Oral Bioavailability of Pentavalent Antimonial Drugs” (Molecules, 2014).

On the set-up of this data set: method as in PMID 22573856.

For `CCCCCCCCCCCCCCCCOP(=O)([O-])OCC[N+](C)(C)C` [miltefosine, hexadecylphosphocholine], the half-life is reported as ~ 150 h.
